From patent publication US11352352B2, “Aminopyrimidine compound, preparation method therefor and use thereof” (BEIJING ADAMADLE BIOTECHNOLOGY LIMITED LIABILITY COMPANY, priority 2017, dated 2022) come the findings set out here.

The structures appear in SMILES notation.

What all share (assay): Cell proliferation inhibition experiment, CellTiter-Glo (CTG) method
Holding throughout (assay type): cell-based

One assay relates to NCI-H1975. As to conditions: for IC50: Homo sapiens, NCI-H1975, 72 h, NCI-H1975 cells, CTG, 3 days; for A-431/NCI-H1975 Selectivity: ratio of A-431 IC50 to NCI-H1975 IC50. The essentials:
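NCI-H1975 cells with viability above 90% by trypan blue were seeded at 90 μL per well in black 96-well plates and incubated overnight at 37° C., 5% CO2. Compounds were added at nine concentrations in triplicate, and viability was measured with CellTiter-Glo luminescence on EnVision. IC50 came from non-linear S-curve fitting in GraphPad Prism 5.0.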

The next assay has as its system PC-9. As to conditions: Homo sapiens, PC-9, 72 h, PC-9 cells, 3 days. In outline: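 Cells in log-phase growth (viability above 90% by trypan blue) were seeded at 90 μL per well in black-walled, clear-bottom 96-well plates and incubated overnight at 37° C., 5% CO2. A T0 plate was read the next day. Test compounds were added at nine concentrations in triplicate with a solvent control. Viability was measured by CellTiter-Glo luminescence on EnVision, and IC50 came from non-linear S-curve fitting in GraphPad Prism 5.0.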

For another assay, the system named is A-431. The note with it: Homo sapiens, A-431, 72 h, A-431 cells, 3 days. In outline: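 For each line, compound is added at nine threefold-spaced concentrations, highest 30 μM (A-431) or 1.111 μM (NCI-H1975, PC-9), and cells grow 3 days at 37 °C. CellTiter-Glo luminescence gives survival relative to solvent control, fitted to yield IC50.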

Turning to `C=CC(=O)Nc1cc(Nc2cc(-c3ccc4cnn(C)c4c3)ncn2)c(OC(F)F)cc1N1CCN(CCO)CC1` [compound 275], the values for the IC50 in the assay with NCI-H1975, in the assay on PC-9 and with A-431 were 136 nM, 43.2 nM and 3300 nM, respectively. Moreover, the “A-431/NCI-H1975 Selectivity” value with NCI-H1975 stood at 24.3.
For `C=CC(=O)Nc1cc(Nc2cc(-c3ccc4c(cnn4C)c3)ncn2)c(OC)cc1N1CCN(CC)[C@H](C)C1` [compound 29], in that order: 55.7 nM, 79.9 nM, 1810 nM and 32.6.
Regarding `C=CC(=O)Nc1cc(Nc2cc(-c3ccc4c(cnn4C)c3)ncn2)c(OC)cc1N1CCN(C2CCN(C(C)=O)CC2)CC1` [compound 134], the IC50 in the assay on NCI-H1975 was found to be 33.8 nM; in the assay with PC-9 it was 31.1 nM; in the assay on A-431, 1430 nM. Besides, the “A-431/NCI-H1975 Selectivity” value in the assay on NCI-H1975 is on record as 42.4.
For `C=CC(=O)Nc1cc(Nc2cc(-c3ccc4cnn(C)c4c3)ncn2)c(OC)cc1N1CCN(C2CCOC2)CC1` (centres unmarked) [compound 215] the same measures were 18.4 nM, 15.4 nM, 1440 nM and 78.1.
For `C=CC(=O)Nc1cc(Nc2cc(-c3ccc4c(cnn4C)c3)ncn2)c(OC)cc1C1CCN(C)CC1` [compound 11] the same measures were 67.4 nM, 21.8 nM, 2140 nM and 31.7.
For `C=CC(=O)Nc1cc(Nc2cc(-c3ccc4c(cnn4C)c3)ncn2)c(OC)cc1N1CCN(C(C)(C)CO)CC1` [compound 268], in that order: 27.1 nM, 15.6 nM, 1700 nM and 62.7.
`C=CC(=O)Nc1cc(Nc2cc(-c3ccc4cnn(C)c4c3)ncn2)c(OC)cc1N1CCN(CC)[C@H](C)C1` [compound 49]: the IC50 in the assay with NCI-H1975 worked out at 85.6 nM; with PC-9, 88 nM; with A-431, 1470 nM. In addition, the “A-431/NCI-H1975 Selectivity” value with NCI-H1975 turned out to be 17.2.
For `C=CC(=O)Nc1cc(Nc2cc(-c3ccc4c(cnn4C)c3)ncn2)c(OC)cc1N(C)CCN1CCN(C2CC2)CC1` [compound 127], in that order: 45.1 nM, 163 nM, 2300 nM and 51.0.
For `C=CC(=O)Nc1cc(Nc2cc(-c3ccc4c(C)nn(C)c4c3)ncn2)c(OC)cc1N1CC(C)N(C)C(C)C1` (centres unmarked) [compound 56], in that order: 113 nM, 56.7 nM, 1230 nM and 10.9.
For `C=CC(=O)Nc1cc(Nc2cc(-c3ccc4cnn(C)c4c3)ncn2)c(OC)cc1N1CCCN(C)CC1` [compound 47], in that order: 49 nM, 34 nM, 671 nM and 13.7.
Take `C=CC(=O)Nc1cc(Nc2cc(-c3ccc4c(cnn4C)c3)ncn2)c(OC)cc1N1CCN(C2CCOC2)CC1` (centres unmarked) [compound 214]: the values for the half-maximal inhibitory concentration (IC50) in the assay on NCI-H1975, in the assay on PC-9 and in the assay with A-431 were 19.7 nM, 16.7 nM and 1530 nM, respectively. In the assay with NCI-H1975, the “A-431/NCI-H1975 Selectivity” value amounted to 77.6.
For `C=CC(=O)Nc1cc(Nc2nccc(-c3ccc4c(cnn4C(C)C)c3)n2)c(OC)cc1N(C)CCN(C)C` [compound 238], in that order: 51.6 nM, 99.4 nM, 1940 nM and 37.6.
For `C=CC(=O)Nc1cc(Nc2cc(-c3ccc4c(cnn4C)c3)ncn2)c(OC(F)F)cc1N1CCN(CCO)CC1` [compound 273], in that order: 53.3 nM, 79.8 nM, 2680 nM and 50.2.
For the compound `C=CC(=O)Nc1cc(Nc2cc(-c3ccc4c(cnn4C)c3)ncn2)c(OC)cc1N(C)CCN(C)CC` [compound 88], the half-maximal inhibitory concentration (IC50) with NCI-H1975 turned out to be 6.1 nM; with PC-9, 7.2 nM; in the assay on A-431, 987 nM. Moreover, the “A-431/NCI-H1975 Selectivity” value in the assay with NCI-H1975 came to 161.8.
Turning to `C=CC(=O)Nc1cc(Nc2cc(-c3ccc4cnn(C)c4c3)ncn2)c(OC)cc1N1CCN(C2CCN(C)CC2)CC1` [compound 184], the concentration for half-maximal inhibition (IC50) amounted to 49.5 nM in the assay with NCI-H1975, 32.6 nM in the assay on PC-9 and 1060 nM in the assay with A-431. For the same compound, the “A-431/NCI-H1975 Selectivity” value in the assay on NCI-H1975 is reported as 21.3.
Turning to `C=CC(=O)Nc1cc(Nc2cc(-c3ccc4cnn(C)c4c3)ncn2)c(OC)cc1N1CCC(N2CCOCC2)CC1` [compound 55], the IC50 with NCI-H1975 came to 32.2 nM; in the assay on PC-9 it was 3.6 nM; in the assay on A-431, 586 nM.
Consider `C=CC(=O)Nc1cc(Nc2nccc(-c3ccc4cnn(C)c4c3)n2)c(OC(F)F)cc1N(C)CCN(C)C` [compound 177], for which the IC50 with NCI-H1975 is 19 nM; with PC-9 it was 23.5 nM; in the assay with A-431 it was 1470 nM. Besides, the “A-431/NCI-H1975 Selectivity” value with NCI-H1975 is recorded as 77.3.
`C=CC(=O)Nc1cc(Nc2nccc(-c3ccc4c(cnn4C)c3)n2)c(OC)cc1N(C)C1CCN(C)C1` (centres unmarked) [compound 109]: the IC50 in the assay on NCI-H1975 worked out at 32.3 nM; in the assay with PC-9, 35 nM; in the assay on A-431, 1430 nM. In addition, in the assay on NCI-H1975, the “A-431/NCI-H1975 Selectivity” value was 44.4.
For the compound `C=CC(=O)Nc1cc(Nc2cc(-c3ccc4c(cnn4C)c3)ncn2)c(OC)cc1N1CCN(CCN(C)C)CC1` [compound 59], the values for the half-maximal inhibitory concentration (IC50) with NCI-H1975, in the assay on PC-9 and with A-431 were 10 nM, 8.9 nM and 1270 nM, respectively.
With `C=CC(=O)Nc1cc(Nc2nccc(-c3ccc4c(cnn4C)c3)n2)c(OC)cc1N1CCN(CCOC)CC1` [compound 232], the IC50 with NCI-H1975 stood at 90.2 nM; in the assay with PC-9, 82.7 nM; in the assay with A-431 it was 2560 nM. Further, in the assay with NCI-H1975, the “A-431/NCI-H1975 Selectivity” value was determined as 28.4.
Regarding `C=CC(=O)Nc1cc(Nc2cc(-c3ccc4c(cnn4C(C)C)c3)ncn2)c(OC)cc1N1C[C@@H](C)N(C)[C@@H](C)C1` [compound 83], the IC50 was found to be 67.2 nM in the assay on NCI-H1975, 77.9 nM in the assay on PC-9 and 1520 nM in the assay on A-431. The “A-431/NCI-H1975 Selectivity” value in the assay on NCI-H1975 amounted to 22.6.
Consider `C=CC(=O)Nc1cc(Nc2cc(-c3ccc4c(cnn4C)c3)ncn2)c(OC(F)F)cc1N(C)C1CCN(C)C1` (centres unmarked) [compound 111], for which the results for the 50% inhibitory concentration (IC50) with NCI-H1975, in the assay with PC-9 and in the assay on A-431 were 18 nM, 16.8 nM and 948 nM, respectively. The “A-431/NCI-H1975 Selectivity” value in the assay with NCI-H1975 was found to be 52.7.
As for `C=CC(=O)Nc1cc(Nc2cc(-c3ccc4c(cnn4C)c3)ncn2)c(OCC)cc1N(C)CCNC(C)C` [compound 271], the figures for the IC50 in the assay with NCI-H1975, in the assay on PC-9 and in the assay on A-431 were 25.2 nM, 77.7 nM and 2390 nM, respectively. The “A-431/NCI-H1975 Selectivity” value in the assay on NCI-H1975 worked out at 94.9.
In the case of `C=CC(=O)Nc1cc(Nc2cc(-c3ccc4c(cnn4CC)c3)ncn2)c(OCC)cc1N(C)CCN(CC)CC` [compound 94], the 50% inhibitory concentration (IC50) with NCI-H1975 turned out to be 47.8 nM; in the assay with PC-9, 55.7 nM; in the assay with A-431, 2040 nM. Also, in the assay on NCI-H1975, the “A-431/NCI-H1975 Selectivity” value stood at 42.6.
Consider `C=CC(=O)Nc1cc(Nc2cc(-c3ccc4ncsc4c3)ncn2)c(OC)cc1N1C[C@@H](C)N(C)[C@@H](C)C1` [compound 82], for which the IC50 was 24 nM with NCI-H1975, 29.6 nM in the assay with PC-9 and 1090 nM with A-431. Also, in the assay with NCI-H1975, the “A-431/NCI-H1975 Selectivity” value was found to be 45.6.
